What was measured:
[1] = target: T1, casein kinase 1ε (Homo sapiens, UniProt P49674); assay: Casein Kinase Epsilon 33P-ATP Filter Plate Assay for Screening CK1ε Inhibitors; assay type: biochemical
T1 construct: made in house
Description: Casein Kinase Epsilon ^33P-ATP Filter Plate Assay for Screening CK1ε Inhibitors
Purpose: This assay measures the ability of compounds to inhibit the phosphorylation of the substrate casein by the enzyme casein kinase 1ε using an in vitro ^33P-ATP filtration assay.
The above are stored as 100 μL aliquots at minus 80° C. • Compounds: • Supply compounds for testing as frozen 10 mM compound stock dissolved in 100% DMSO. Assay Conditions: • Final total assay volume per well is equal to 50 μL that one prepares as follows: • 5 μL of diluted compound stock (10, 1, 0.1, 0.01 or 0.001 μM), • 5 μL of dephosphorylated casein final concentration 0.2 μg/μL, • 20 μL of CK1ε final concentration 3 ng/μL, and • 20 μL of γ-^33P-ATP final concentration 0.02 μCi/μL mixed with cold ATP (10 μM final). Methodology: • 1. Prepare 500 mL of fresh assay buffer: 50 mM Tris pH 7.5, 10 nm MgCl2, 2 mM DTT and 1 mM EGTA • 2. Obtain compounds to be evaluated as 10 μL of 10 mM stock dissolved in 100% DMSO. Use a Biomek 2000 liquid handling robot, make serial dilutions to yield 10, 1, 0.1, 0.01 and 0.001 μM final compound dilutions added as 5 μL additions to Falcon U bottom plates. […] A routine screening assay will consist of 32 compounds, which equals 4 assay plates. • 3.
• 4. Add 5 μL of compound as indicated, then add 5 μL of dephosphorylated casein (dissolved in distilled H20) (0.2 μg/μL) and 20 μL CK1ε (3 ng/μL) to the appropriate wells. • 5. Finally add 20 μL γ-^33P-ATP (0.02 μCi/μL)/10 μM cold ATP (equals approximately 2×10^6 CPM per well). • 6. Vortes the Falcon U-Bottom assay plate containing the above 50 μL reaction volume and then incubate at room temperature for 2 hours. • 7. At the end of 2 hours, stop the reaction by the addition of 65 μL of ice cold 2 mM cold ATP (made up in assay buffer) to the assay plates using a Beckman Multimek. • 8. At the same time add 25 μL 100% ice cold TCA made up in distilled H20 to a matching number of Millipore MAPH filter plates. • 9. Using a handheld 8-channel pipettor, transfer 100 μL of the reaction mixture from the Falcon U-Bottom Plate to the Millipore MAPH filter plates presoaked with TCA. • 10. Mix the Millipore MAPH filter plates gently and allow to sit at room temperature for at least 30 minutes to precipitate the proteins. • 11. After 30 minutes, place the filter plates on a Millipore vacuum manifold and filter at no more than 8 mm Hg as the MAPH filters tend to “air lock” at higher vacuum settings. • 12. […] Allow the plates to dry overnight at room temperature. The next day add 40 μL Packard Microscint-20 Scintillation Fluid per well using a Titertek Multidrop dispenser; seal the plates and count for 2 minutes/well in a Packard Topcount NXT Scintillation Counter (to provide CPM values/well). Calculation: • 1. Import Counts Per Minute (CPM) data into a proprietary data calculation and archiving database (Activity Base by IDBS version 5.0). • 2. Column 1 for each plate reflects total phosphorylation activity of the enzyme in the absence of any inhibiting compound and thus represents 100%. Column 12 reflects any nonspecific phosphorylation/retained radioactivity activity in the absence of inhibiting compound and enzyme. Typically one observes approximately 1% of Total CPMs that are “nonspecific”. • 3.

[2] = system: Mper1-luc Rat-1 fibroblasts (P2C4); assay: Cellular Circadian Assay (Mper1-luc reporter period lengthening); assay type: cell-based; settings: effective micromolar concentration that induces a 1 hour lengthening of period
Description: Cellular Circadian Assay Experimental Procedures
Stable transfection: Co-transfect Rat-1 fibroblast cultures at 30-50% confluence with vectors containing the Zeocin resistance selectable marker for stable transfection and an mPer1 promoter-driven luciferase reporter gene. After 24-48 hours, split the cultures onto 96 well plates and maintain in growth media supplemented with 50-100 μg/mL Zeocin (Invitrogen #45-0430) for 10-14 days. Assess Zeocin-resistant stable transfectants for reporter expression by supplementing growth media with 100 μM luciferin (Promega #E1603) and assaying luciferase activity on a TopCount scintillation counter (Packard Model #C384V00). […] Select Mper1-luc Rat-1 fibroblasts clone P2C4 for compound testing.
After synchronization, rinse cultures with 100 μL EMEM (Cellgro #10-010-CV) for 10 minutes at room temperature. […] Add compounds to be tested for circadian effects to CO2-independent media in 0.3% DMSO (final concentration).
Estimate in vivo luciferase activity by measuring relative light output on a TopCount scintillation counter (Packard Model #C384V00). Transfer plates from incubator to reader using an ORCA robotic arm (Beckman Instruments) and SAMI-NT automated scheduling software (Version 3.3; SAGIAN/Beckman Instruments).
Data Analysis Use Microsoft Excel and XLfit (Version 2.0.9; IDBS) to import, manipulate and graph data. Perform period analysis either by determining the interval between relative light output minima over several days or by Fourier Transform. […] Analyze the data by fitting a hyperbolic curve to the data expressed as period change (y-axis) versus the concentration of test compound (x-axis) in XLfit and interpolate the EC ? t+1h from this curve.

T1 sequence (P49674 whole entry): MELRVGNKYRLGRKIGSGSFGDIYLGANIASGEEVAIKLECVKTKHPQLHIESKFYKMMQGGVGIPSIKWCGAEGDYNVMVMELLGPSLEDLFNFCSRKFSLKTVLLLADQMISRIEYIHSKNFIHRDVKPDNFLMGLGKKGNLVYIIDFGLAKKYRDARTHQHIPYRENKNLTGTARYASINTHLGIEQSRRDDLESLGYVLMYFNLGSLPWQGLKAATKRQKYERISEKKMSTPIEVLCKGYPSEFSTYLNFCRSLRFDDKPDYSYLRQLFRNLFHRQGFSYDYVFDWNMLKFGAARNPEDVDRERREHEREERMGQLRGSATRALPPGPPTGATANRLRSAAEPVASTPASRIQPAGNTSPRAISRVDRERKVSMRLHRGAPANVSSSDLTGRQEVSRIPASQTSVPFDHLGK

## NC(=O)c1[nH]c2ccc(CN3CCN(c4ncccn4)CC3)cc2c1Sc1ccccc1 [Ip, 3-Phenylsulfanyl-5-(4-pyrimidin-2-yl-piperazin-1-ylmethyl)-1H-indole-2-carboxylic acid amide]
[1]
  Ki: 74 nM
[2]
  Cell Assay ECΔτ1h: 1.87 µM

## CC(C)(C)OC(=O)N1CCCN(Cc2ccc3[nH]c(C(N)=O)c(Sc4ccccc4)c3c2)CC1 [Ir, 4-(2-Carbamoyl-3-phenylsulfanyl-1H-indol-5-ylmethyl)-[1,4]diazepane-1-carboxylic acid tert-butyl ester]
[1]
  Ki: 130 nM
[2]
  Cell Assay ECΔτ1h: >10 µM

## CC(C)(C)OC(=O)NCc1ccc2c(Sc3ccccc3)c(C(N)=O)[nH]c2c1 [IIb, (2-Carbamoyl-3-phenylsulfanyl-1H-indol-6-ylmethyl)-carbamic acid tert-butyl ester]
[1]
  Ki: 2330 nM
other
  melting point: 118 to 121 °C

## NC(=O)c1[nH]c2ccc(CNC3CC4CCC3C4)cc2c1Sc1ccccc1 (stereo not shown) [It]
[1]
  Ki: 450 nM
[2]
  Cell Assay ECΔτ1h: 2.70 µM

## NC(=O)c1[nH]c2ccc(CNc3ccccc3F)cc2c1Sc1ccccc1 [Iai, 5-[(2-Fluorophenylamino)methyl]-3-phenylsulfanyl-1H-indole-2-carboxylic acid amide]
[1]
  Ki: 6850 nM
[2]
  Cell Assay ECΔτ1h: 6.91 µM

## 3-(3-Fluorophenylsulfanyl)-5-methylaminomethyl-1H-indole-2-carboxylic acid amide [Ie]
[2]
  Cell Assay ECΔτ1h: 3.34 µM

## NC(=O)c1[nH]c2ccc(CN3CCN(CC=Cc4ccccc4)CC3)cc2c1Sc1ccccc1 [Iq, 5-[4-(3-Phenylpropenyl)piperazin-1-ylmethyl]-3-phenylsulfanyl-1H-indole-2-carboxylic acid amide]
[1]
  Ki: 310 nM
[2]
  Cell Assay ECΔτ1h: >3 µM

## NC(=O)c1[nH]c2ccc(CN3CCCNCC3)cc2c1Sc1ccccc1 [Is, 5-[1,4]Diazepan-1-ylmethyl-3-phenylsulfanyl-1H-indole-2-carboxylic acid amide]
[1]
  Ki: 120 nM
[2]
  Cell Assay ECΔτ1h: 7.85 µM

## CCCCCNCc1ccc2[nH]c(C(N)=O)c(Sc3ccccc3)c2c1 [Im, 5-Pentylaminomethyl-3-phenylsulfanyl-1H-indole-2-carboxylic acid amide]
[1]
  Ki: 64 nM
[2]
  Cell Assay ECΔτ1h: 4.55 µM

## 3-(3-Chlorophenylsulfanyl)-5-methylaminomethyl-1H-indole-2-carboxylic acid amide
[2]
  Cell Assay ECΔτ1h: 5.67 µM

## NCc1ccc2[nH]c(C(N)=O)c(Sc3ccccc3)c2c1 [Ia, 5-Aminomethyl-3-phenylsulfanyl-1H-indole-2-carboxylic acid amide]
[1]
  Ki: 70 nM
[2]
  Cell Assay ECΔτ1h: 0.44 µM

## NC(=O)c1[nH]c2cc(CNCc3c(F)cccc3C(F)(F)F)ccc2c1Sc1ccccc1 [IIap, 6-[(2-Fluoro-6-trifluoromethylbenzylamino)methyl]-3-phenylsulfanyl-1H-indole-2-carboxylic acid amide]
[1]
  Ki: > 10000 nM

## Cc1ccccc1CNCc1ccc2c(Sc3ccccc3)c(C(N)=O)[nH]c2c1 [IIz, 6-[(2-Methylbenzylamino)methyl]-3-phenylsulfanyl-1H-indole-2-carboxylic acid amide]
[1]
  Ki: 570 nM

## COc1cc(C#N)c(NCc2ccc3[nH]c(C(N)=O)c(Sc4ccccc4)c3c2)cc1OC [Iab, 5-[(2-Cyano-4,5-dimethoxyphenylamino)methyl]-3-phenylsulfanyl-1H-indole-2-carboxylic acid amide]
[1]
  Ki: > 10000 nM

## NC(=O)c1[nH]c2cc(CNC(=O)[C@@H](N)Cc3ccccc3)ccc2c1Sc1ccccc1 [IIt, 6-[(2-Amino-3-phenylpropionylamino)methyl]-3-phenylsulfanyl-1H-indole-2-carboxylic acid amide]
[1]
  Ki: 1280 nM

## NC(=O)c1[nH]c2cc(CNCc3ccc([N+](=O)[O-])s3)ccc2c1Sc1ccccc1 [IIal, 6-{[(5-Nitrothiophen-2-ylmethyl)amino]methyl}-3-phenylsulfanyl-1H-indole-2-carboxylic acid amide]
[1]
  Ki: 1210 nM

## NC(=O)c1[nH]c2ccc(CN3CCC4(CC3)OCCO4)cc2c1Sc1ccccc1 [Iz, 5-(1,4-Dioxa-8-aza-spiro[4,5]dec-8-ylmethyl)-3-phenylsulfanyl-1H-indole-2-carboxylic acid amide]
[1]
  Ki: 320 nM

## COc1cccc(NCc2ccc3[nH]c(C(N)=O)c(Sc4ccccc4)c3c2)c1 [Iag, 5-[(3-Methoxyphenylamino)methyl]-3-phenylsulfanyl-1H-indole-2-carboxylic acid amide]
[1]
  Ki: 2230 nM

## NC(=O)c1[nH]c2cc(CNCc3ccc(-c4ccccc4)cc3)ccc2c1Sc1ccccc1 [IIj, 6-{[(Biphenyl-4-ylmethyl)amino]methyl}-3-phenylsulfanyl-1H-indole-2-carboxylic acid amide]
[1]
  Ki: 1390 nM

## NC(=O)c1[nH]c2cc(CNCc3cccn3S(=O)(=O)c3ccccc3)ccc2c1Sc1ccccc1 [IIas, 6-{[(1-Benzenesulfonyl-1H-pyrrol-2-ylmethyl)amino]methyl}-3-phenylsulfanyl-1H-indole-2-carboxylic acid amide]
[1]
  Ki: 6250 nM

## NC(=O)c1[nH]c2cc(CNCc3ccc(Br)cc3)ccc2c1Sc1ccccc1 [IIh, 6-[(4-Bromobenzylamino)methyl]-3-phenylsulfanyl-1H-indole-2-carboxylic acid amide]
[1]
  Ki: 740 nM

## Cc1ccc(CNCc2ccc3c(Sc4ccccc4)c(C(N)=O)[nH]c3c2)cc1 [IIf, 6-[(4-Methylbenzylamino)methyl]-3-phenylsulfanyl-1H-indole-2-carboxylic acid amide]
[1]
  Ki: 810 nM

## CC(CO)NCc1ccc2[nH]c(C(N)=O)c(Sc3ccccc3)c2c1 (stereo not shown) [Ix, 5-[(2-Hydroxy-1-methyl-ethylamino)methyl]-3-phenylsulfanyl-1H-indole-2-carboxylic acid amide]
[1]
  Ki: 130 nM
other
  melting point: 192.7 to 193.6 °C

## Cc1cccc(CNCc2ccc3c(Sc4ccccc4)c(C(N)=O)[nH]c3c2)c1 [IIaa, 6-[(3-Methylbenzylamino)methyl]-3-phenylsulfanyl-1H-indole-2-carboxylic acid amide]
[1]
  Ki: 460 nM

## COC(=O)c1ccc(CNCc2ccc3c(Sc4ccccc4)c(C(N)=O)[nH]c3c2)cc1 [IIam, 4-{[(2-Carbamoyl-3-phenylsulfanyl-1H-indol-6-ylmethyl)amino]methyl}benzoic acid methyl ester]
[1]
  Ki: 2420 nM

## CCCNCc1ccc2[nH]c(C(N)=O)c(Sc3ccccc3)c2c1 [Ij, 3-Phenylsulfanyl-5-propylaminomethyl-1H-indole-2-carboxylic acid amide]
[1]
  Ki: 200 nM

## NC(=O)c1[nH]c2cc(CNCc3cccc(Oc4ccccc4)c3)ccc2c1Sc1ccccc1 [IIx, 6-[(3-Phenoxybenzylamino)methyl]-3-phenylsulfanyl-1H-indole-2-carboxylic acid amide]
[1]
  Ki: 1190 nM

## NC(=O)c1[nH]c2cc(CNCc3cccc(C(F)(F)F)c3F)ccc2c1Sc1ccccc1 [IIab, 6-[(2-Fluoro-3-trifluoromethylbenzylamino)methyl]-3-phenylsulfanyl-1H-indole-2-carboxylic acid amide]
[1]
  Ki: 4040 nM

## CC(NCc1ccc2[nH]c(C(N)=O)c(Sc3ccccc3)c2c1)C(N)=O (stereo not shown) [Iaf, 5-[(1-Carbamoylethylamino)methyl]-3-phenylsulfanyl-1H-indole-2-carboxylic acid amide]
[1]
  Ki: 390 nM

## NC(=O)c1[nH]c2cc(CNCc3cc(Cl)cc(Cl)c3O)ccc2c1Sc1ccccc1 [IIah, 6-[(3,5-Dichloro-2-hydroxybenzylamino)methyl]-3-phenylsulfanyl-1H-indole-2-carboxylic acid amide]
[1]
  Ki: 3500 nM

## NC(=O)c1[nH]c2cc(CNCc3ccccc3)ccc2c1Sc1ccccc1 [IIc, 6-(Benzylaminonmethyl)-3-phenylsulfanyl-1H-indole-2-carboxylic acid amide]
[1]
  Ki: 720 nM

## COc1cc(CNCc2ccc3c(Sc4ccccc4)c(C(N)=O)[nH]c3c2)ccc1OCc1ccccc1 [IIaj, 6-[(4-Benzyloxy-3-methoxybenzylamino)methyl]-3-phenylsulfanyl-1H-indole-2-carboxylic acid amide]
[1]
  Ki: 2100 nM

## NC(=O)c1[nH]c2cc(CNCc3ccc(Cl)cc3)ccc2c1Sc1ccccc1 [IIi, 6-[(4-Chlorobenzylamino)methyl]-3-phenylsulfanyl-1H-indole-2-carboxylic acid amide]
[1]
  Ki: 390 nM

Reference: patent US7629376B2, “3-substituted-5- and 6-aminoalkyl indole-2-carboxylic acid amides and related analogs as inhibitors of casein kinase I” (Aventis Pharmaceuticals Inc., priority 2004, dated 2009)
